Test results: publication PMC9976893, “Dynamic states of eIF6 and SDS variants modulate interactions with uL14 of the 60S ribosomal subunit” (Nucleic Acids Research, 2023)

Test system: full-length human eIF6
Assay: Surface plasmon resonance of uL14 peptides on immobilized eIF6
Details: BIAcore S200, eIF6 on CM5 chip, peptide 0-500 μM in 20 mM HEPES pH 7.4, 150 mM NaCl, 0.01% BSA, 0.002% Tween 20; repeated three times; non-specific binding subtracted
Description: SPR analyses were carried out using a BIAcore S200 instrument (GE-Healthcare). eIF6 (50 μg/ml) was solubilized in 20 mM ammonium acetate pH 4.0 and immediately immobilized on a CM5 sensor chip (4913 Response Units [RU] using NHS/EDC chemistry). After baseline stabilization, titrations were performed by injecting increasing concentrations (0–500 μM, 1:2 dilutions) of uL14-WT ([…]), the site-specific mutant peptides, or the uL14-ΔC ([…]) peptide, solubilized in running buffer (20 mM HEPES pH 7.4, 150 mM NaCl, 0.01% BSA, and 0.002% Tween 20). At the end of each titration, a solution of 20 mM HEPES pH 7.4 and 1.5 M NaCl was used to regenerate the chip. The flow rate was 25 μl/min. Peptides were solubilized in water and their concentration determined at 280 nm using the molar extinction coefficient ϵ280 = 5500 M^−1 cm^−1. To ensure reproducibility, each experiment was repeated three times. Sensograms were corrected for baseline.
For SPR studies, full-length elF6 was immobilized to the surface, and the C-terminal peptide of uL14 (aa 121–140) was used in the fluid phase (Figure 2D). […] The contribution of non-specific binding of the peptide to the surface was subtracted for each sensorgram. […] It further highlighted the significance of the N135 and S138 for interaction with eIF6. […]

VAKECADLWPRI [uL14-ΔC]
binding to immobilized eIF6 (SPR): complete loss in binding
